Source: PubChem BioAssay AID248 (DTP/NCI, 2004)
“And” between values parts separate entries of the source, which are not always exact repeats. Identical values can stand only once. Inconclusive results and toxic doses are left out.

System: L1210 leukemia ip in BDF1 mice, survival T/C
Assay: NCI In Vivo Anticancer Drug Screen. Data for tumor model L1210 Leukemia (intraperitoneal) in B6D2F1 (BDF1) mice
Conditions: endpoint: mean survival time, higher = longer survival
In short: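 Tumor cells were implanted, animals were treated, and survival was followed. The result divides the treated measurement by the vehicle-control measurement.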

[1] = dose: 50.0 mg/kg/injection, schedule: Q01DX009 (ip), vehicle: saline with Tween-80
[2] = dose: 100.0 mg/kg/injection, schedule: Q01DX001 (ip), vehicle: saline
[3] = dose: 100.0 mg/kg/injection, schedule: Q01DX009 (ip), vehicle: saline with Tween-80
[4] = dose: 100.0 mg/kg/injection, schedule: Q04DX003 (ip), vehicle: saline
[5] = dose: 200.0 mg/kg/injection, schedule: Q01DX001 (ip), vehicle: saline
[6] = dose: 200.0 mg/kg/injection, schedule: Q01DX009 (ip), vehicle: saline with Tween-80
[7] = dose: 400.0 mg/kg/injection, schedule: Q04DX003 (ip), vehicle: saline
[8] = dose: 100.0 mg/kg/injection, schedule: Q01DX009 (ip), vehicle: saline
[9] = dose: 200.0 mg/kg/injection, schedule: Q01DX009 (ip), vehicle: saline
[10] = dose: 400.0 mg/kg/injection, schedule: Q01DX001 (ip), vehicle: saline
[11] = dose: 400.0 mg/kg/injection, schedule: Q01DX009 (ip), vehicle: saline
[12] = dose: 50.0 mg/kg/injection, schedule: Q04DX003 (ip), vehicle: saline
[13] = dose: 75.0 mg/kg/injection, schedule: Q01DX001 (ip), vehicle: saline

For `NCc1cn(C2OC(CO)C(O)C2O)c2ncnc(N)c12` (stereo unspecified), the T/C (dose: 1.56 mg/kg/injection, schedule: Q01DX009 (ip), vehicle: saline) was 90 % of control, the T/C (dose: 3.12 mg/kg/injection, schedule: Q01DX005 (ip), vehicle: saline) was 92 % of control and the T/C (dose: 3.12 mg/kg/injection, schedule: Q01DX009 (ip), vehicle: saline) was 107 % of control. The T/C (dose: 6.25 mg/kg/injection, schedule: Q01DX005 (ip), vehicle: saline) was 108 % of control.
`O=C(NO)c1ccccc1` was tested, and the T/C (dose: 25.0 mg/kg/injection, schedule: Q03HX032 (ip), vehicle: saline) was 97 % of control, the T/C (dose: 38.0 mg/kg/injection, schedule: Q03HX032 (ip), vehicle: saline) was 95 % of control and the T/C (dose: 50.0 mg/kg/injection, schedule: Q01DX009 (ip), vehicle: Klucel (hydroxypropylcellulose) (HPC)) was 90 % of control. The T/C [1] was 98 % of control, the T/C (dose: 57.0 mg/kg/injection, schedule: Q01DX015 (ip), vehicle: saline) was 92 % of control and the T/C (dose: 57.0 mg/kg/injection, schedule: Q03HX032 (ip), vehicle: saline) was 100 % of control. For the same molecule, the T/C (dose: 62.0 mg/kg/injection, schedule: Q03HX024 (ip), vehicle: saline) was 96 % of control, the T/C (dose: 85.0 mg/kg/injection, schedule: Q01DX015 (ip), vehicle: saline) was 90 % of control and the T/C (dose: 85.0 mg/kg/injection, schedule: Q03HX032 (ip), vehicle: saline) was 98 % of control and 100 % of control. For the same molecule, the T/C [2] was 95 % of control, the T/C (dose: 100.0 mg/kg/injection, schedule: Q01DX009 (ip), vehicle: Klucel (hydroxypropylcellulose) (HPC)) was 97 % of control and 113 % of control and the T/C (dose: 100.0 mg/kg/injection, schedule: Q01DX009 (ip), vehicle: acetone) was 98 % of control. For the same molecule, the T/C [3] was 96 % of control, the T/C [4] was 103 % of control and the T/C (dose: 125.0 mg/kg/injection, schedule: Q03HX024 (ip), vehicle: saline) was 91 % of control. For the same molecule, the T/C (dose: 130.0 mg/kg/injection, schedule: Q01DX015 (ip), vehicle: saline) was 100 % of control, the T/C (dose: 130.0 mg/kg/injection, schedule: Q03HX032 (ip), vehicle: saline) was 98 % of control and the T/C (dose: 177.0 mg/kg/injection, schedule: Q01DX009 (ip), vehicle: saline) was 100 % of control. The T/C (dose: 178.0 mg/kg/injection, schedule: Q01DX009 (ip), vehicle: saline with Tween-80) was 110 % of control, the T/C [5] was 92 % of control and the T/C (dose: 200.0 mg/kg/injection, schedule: Q01DX009 (ip), vehicle: Klucel (hydroxypropylcellulose) (HPC)) was 115 % of control and 124 % of control. The T/C (dose: 200.0 mg/kg/injection, schedule: Q01DX009 (ip), vehicle: acetone) was 98 % of control, the T/C [6] was 112 % of control and the T/C (dose: 200.0 mg/kg/injection, schedule: Q01DX015 (ip), vehicle: saline) was 97 % of control and 113 % of control. The T/C (dose: 200.0 mg/kg/injection, schedule: Q04DX003 (ip), vehicle: saline) was 108 % of control, the T/C (dose: 264.0 mg/kg/injection, schedule: Q01DX009 (ip), vehicle: acetone) was 120 % of control and the T/C (dose: 264.0 mg/kg/injection, schedule: Q01DX009 (ip), vehicle: saline) was 123 % of control. The T/C (dose: 264.0 mg/kg/injection, schedule: Q04DX003 (ip), vehicle: saline) was 105 % of control and 112 % of control, the T/C (dose: 266.0 mg/kg/injection, schedule: Q01DX009 (ip), vehicle: saline with Tween-80) was 113 % of control and the T/C (dose: 300.0 mg/kg/injection, schedule: Q01DX015 (ip), vehicle: saline) was 121 % of control. The T/C (dose: 400.0 mg/kg/injection, schedule: Q01DX009 (ip), vehicle: Klucel (hydroxypropylcellulose) (HPC)) was 168 % of control, the T/C (dose: 400.0 mg/kg/injection, schedule: Q01DX009 (ip), vehicle: acetone) was 153 % of control and the T/C [7] was 117 % of control and 91 % of control. For the same molecule, the T/C (dose: 450.0 mg/kg/injection, schedule: Q01DX015 (ip), vehicle: saline) was 153 % of control and the T/C (dose: 600.0 mg/kg/injection, schedule: Q01DX009 (ip), vehicle: saline) was 159 % of control.
For `O=CNC(Cc1ccc(OCc2ccccc2)cc1)C(=O)O` (stereo unspecified), the T/C [1] was 98 % of control, the T/C (dose: 100.0 mg/kg/injection, schedule: Q01DX001 (ip), vehicle: saline with Tween-80) was 89 % of control and the T/C [3] was 96 % of control. The T/C (dose: 200.0 mg/kg/injection, schedule: Q01DX001 (ip), vehicle: saline with Tween-80) was 95 % of control, the T/C [6] was 98 % of control and the T/C (dose: 400.0 mg/kg/injection, schedule: Q01DX001 (ip), vehicle: saline with Tween-80) was 88 % of control.
For `COC(=O)c1ccccc1N(C)C(=O)c1cc(OC)c(OC)c(OC)c1`, the T/C (dose: 100.0 mg/kg/injection, schedule: Q04DX002 (ip), vehicle: saline with Tween-80) was 108 % of control, the T/C (dose: 200.0 mg/kg/injection, schedule: Q04DX002 (ip), vehicle: saline with Tween-80) was 94 % of control and the T/C (dose: 400.0 mg/kg/injection, schedule: Q04DX002 (ip), vehicle: saline with Tween-80) was 91 % of control.
In the case of `C/C(=N\N=C(/C)c1ccc2ccccc2c1)c1ccc2ccccc2c1`, the T/C (dose: 100.0 mg/kg/injection, schedule: Q04DX003 (ip), vehicle: saline with Tween-80) is reported as 94 % of control and the T/C (dose: 200.0 mg/kg/injection, schedule: Q04DX003 (ip), vehicle: saline with Tween-80) is reported as 91 % of control.
In the case of `O=c1[nH]c2ccc(Cl)cc2c(=O)o1`, the T/C [2] is reported as 92 % of control, the T/C [8] is reported as 100 % of control and the T/C [5] is reported as 95 % of control. The T/C [9] was 98 % of control, the T/C [10] was 101 % of control and the T/C [11] was 90 % of control.
For `COC(=O)C1C2CC3c4[nH]c5cc(OC)ccc5c4CCN3CC2CC(OC)C1OC` (stereo unspecified), the T/C (dose: 0.78 mg/kg/injection, schedule: Q03HX024 (ip), vehicle: saline) was 104 % of control, the T/C (dose: 1.56 mg/kg/injection, schedule: Q03HX024 (ip), vehicle: saline) was 96 % of control and the T/C (dose: 2.0 mg/kg/injection, schedule: Q01DX009 (ip), vehicle: saline) was 93 % of control. The T/C (dose: 3.12 mg/kg/injection, schedule: Q03HX024 (ip), vehicle: saline) was 100 % of control, the T/C (dose: 4.0 mg/kg/injection, schedule: Q01DX009 (ip), vehicle: saline) was 94 % of control and the T/C (dose: 6.25 mg/kg/injection, schedule: Q03HX024 (ip), vehicle: saline) was 110 % of control. For the same molecule, the T/C (dose: 6.25 mg/kg/injection, schedule: Q04DX003 (ip), vehicle: saline) was 95 % of control, the T/C (dose: 8.0 mg/kg/injection, schedule: Q01DX009 (ip), vehicle: saline) was 88 % of control and the T/C (dose: 12.5 mg/kg/injection, schedule: Q04DX003 (ip), vehicle: saline) was 97 % of control. For the same molecule, the T/C (dose: 16.0 mg/kg/injection, schedule: Q01DX009 (ip), vehicle: saline) was 89 % of control, the T/C (dose: 18.75 mg/kg/injection, schedule: Q01DX001 (ip), vehicle: saline) was 102 % of control and the T/C (dose: 25.0 mg/kg/injection, schedule: Q04DX003 (ip), vehicle: saline) was 102 % of control. For the same molecule, the T/C (dose: 32.0 mg/kg/injection, schedule: Q01DX009 (ip), vehicle: saline) was 96 % of control, the T/C (dose: 37.5 mg/kg/injection, schedule: Q01DX001 (ip), vehicle: saline) was 112 % of control and the T/C [12] was 105 % of control and 122 % of control. For the same molecule, the T/C [13] was 112 % of control.
In the case of `O=C1OC(CO)C(O)C1O` (stereo unspecified), the T/C [2] is reported as 101 % of control, the T/C [5] is reported as 95 % of control and the T/C [10] is reported as 91 % of control.
In the case of `COc1cc(OC)c(N=Nc2sc(N)nc2C)cc1Cl`, the T/C [13] is reported as 92 % of control, the T/C (dose: 150.0 mg/kg/injection, schedule: Q01DX001 (ip), vehicle: saline) is reported as 97 % of control and the T/C (dose: 300.0 mg/kg/injection, schedule: Q01DX001 (ip), vehicle: saline) is reported as 94 % of control.
For `CC12C(=O)OC3CCC1CC32` (stereo unspecified), the T/C (dose: 75.0 mg/kg/injection, schedule: Q04DX003 (ip), vehicle: saline) was 97 % of control, the T/C (dose: 150.0 mg/kg/injection, schedule: Q04DX003 (ip), vehicle: saline) was 94 % of control and the T/C (dose: 300.0 mg/kg/injection, schedule: Q04DX003 (ip), vehicle: saline) was 94 % of control.
`O=C1CNC(=O)N1CCCl` was tested, and the T/C [12] was 100 % of control, the T/C [8] was 100 % of control and the T/C [4] was 103 % of control. The T/C [9] was 104 % of control, the T/C [11] was 113 % of control and the T/C [7] was 94 % of control.
`O=C1c2cccc(S(=O)(=O)O)c2C(=O)c2c1cccc2S(=O)(=O)O` was tested, and the T/C (dose: 50.0 mg/kg/injection, schedule: Q01DX001 (ip), vehicle: carboxymethylcellulose (CMC)) was 109 % of control, the T/C (dose: 100.0 mg/kg/injection, schedule: Q01DX001 (ip), vehicle: carboxymethylcellulose (CMC)) was 111 % of control and the T/C (dose: 200.0 mg/kg/injection, schedule: Q01DX001 (ip), vehicle: carboxymethylcellulose (CMC)) was 109 % of control. The T/C (dose: 400.0 mg/kg/injection, schedule: Q01DX001 (ip), vehicle: carboxymethylcellulose (CMC)) was 103 % of control.
